Molecules are shown by their SMILES.

The values below come from patent publication US20100068150A1, “Selective Caspase Inhibitors” (The Board of Trustees of the Leland Stanford Junior …, priority 2006, published 2010).

For one assay, the target named is Caspase-8 (Homo sapiens, UniProt Q14790). Nature of the assay: Kinetic compound screening, progress curve method, caspase-8. It counts as biochemical. The source says:
(§1) Table III below presents Ki(app) values for select AB compounds. Ki(app) values (also called Kass or Kobs/I) represent the speed of inhibitor binding to a target enzyme. Units are [M^−1s^−1]. NI indicates no inhibition at concentrations tested. Parent compounds AB09, ABo8, and AB07 that include the optimal substrate specificity sequences for caspases-3, […] as determined by Thornberry and colleagues (Thornberry et al., 19970 are included between double lines.
(§2) The inhibitors AB07 (NP-LEHD-AOMK, caspase-9), AB08 (NP-LETD-AOMK, caspase-8), and AB09 (NP-DEVD-AOMK, caspase-3) were synthesized and kinetic inhibition constants (Kiapp) were obtained for all compounds for caspases 3, 7, 8 and 9 using the progress curve method for pseudo-first order reactions kinetics (Salvesen, 1989) (structures shown in Table I). […] Ki(app) values (also called Kass or Kobs/I) represent the speed of inhibitor binding to a target enzyme. Units are [M-1s-1]. NI indicates no inhibition at concentrations tested, ND indicates data not determined, SD indicates standard deviation.
(§3) Compound screening was completed using the progress curve method as described (Salvesen, 1989). All screening was carried out in caspase reaction buffer. The caspase-9 specific compounds AB38, 40, 41 and 42 were screened in caspase reaction buffer and in caspase buffer with 1M sodium citrate instead of sucrose as described (Pop, 2006) The concentrations of active caspases used is as follows: 5 nM active caspase-3, 5 nM active caspase-7, 10 nM active caspase-8, and 50 nM active caspase-9. To ensure full activation, caspases 3/7, 8 and 9 were preincubated at 37° C. for 5, 10, or 40 minutes respectively before kinetic measurements were made.

For a further assay, the target named is T1, Caspase-7 (Homo sapiens, UniProt P55210).
T1 sequence (P55210 1-303): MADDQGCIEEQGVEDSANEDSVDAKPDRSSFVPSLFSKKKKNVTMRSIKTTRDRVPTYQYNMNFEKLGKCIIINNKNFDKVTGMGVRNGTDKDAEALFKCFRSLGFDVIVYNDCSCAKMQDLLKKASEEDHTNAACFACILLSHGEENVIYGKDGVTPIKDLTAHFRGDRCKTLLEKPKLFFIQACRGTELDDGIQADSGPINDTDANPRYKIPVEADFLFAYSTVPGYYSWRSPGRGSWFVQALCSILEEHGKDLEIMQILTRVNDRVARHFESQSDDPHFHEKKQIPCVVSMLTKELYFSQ
As to the kind of experiment: Kinetic compound screening, progress curve method, caspase-7. It counts as biochemical.
Source text: as §1, §2, §3

For the next assay, the target named is T2, Caspase-3 (Homo sapiens, UniProt P42574).
T2 sequence (P42574 29-175 limits assumed): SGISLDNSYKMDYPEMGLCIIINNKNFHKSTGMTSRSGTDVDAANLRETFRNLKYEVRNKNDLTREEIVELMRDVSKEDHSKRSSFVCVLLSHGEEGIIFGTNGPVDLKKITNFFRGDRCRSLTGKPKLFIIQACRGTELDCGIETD
T2 sequence (P42574 176-277 limits assumed): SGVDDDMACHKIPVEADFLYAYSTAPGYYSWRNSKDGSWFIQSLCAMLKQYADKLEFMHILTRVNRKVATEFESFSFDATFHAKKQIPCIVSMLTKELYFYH
As to the kind of experiment: Kinetic compound screening, progress curve method, caspase-3. Format: biochemical.
Source text: as §1, §2, §3

A further assay addresses T3, Caspase-9 (Homo sapiens, UniProt P55211).
T3 sequence (P55211 1-416): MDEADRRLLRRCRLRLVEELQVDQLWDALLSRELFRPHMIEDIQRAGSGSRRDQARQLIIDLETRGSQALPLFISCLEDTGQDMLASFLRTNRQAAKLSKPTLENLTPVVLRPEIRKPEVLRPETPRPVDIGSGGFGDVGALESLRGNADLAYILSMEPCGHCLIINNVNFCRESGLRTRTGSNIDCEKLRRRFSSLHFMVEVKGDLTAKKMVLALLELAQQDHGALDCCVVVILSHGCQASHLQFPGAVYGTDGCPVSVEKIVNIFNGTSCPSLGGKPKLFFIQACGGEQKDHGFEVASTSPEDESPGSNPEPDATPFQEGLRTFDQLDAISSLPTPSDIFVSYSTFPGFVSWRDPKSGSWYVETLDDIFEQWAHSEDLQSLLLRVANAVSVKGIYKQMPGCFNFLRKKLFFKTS
As to the kind of experiment: Kinetic compound screening, progress curve method, caspase-9. Format: biochemical. The following applies: NI = no inhibition at concentrations tested.
Source text: as §1, §2, §3

The test system of assay [1] is recombinant caspases-3, 7, 8 and 9. As to the kind of experiment: Indirect competition with general probe KMB01 on individual recombinant caspases. It counts as biochemical. To be noted: 100 nM caspase, inhibitor 30 min, then 5 μM KMB01 30 min; range of concentrations. On the procedure: (a.) Indirect competition of a panel of inhibitors with the general caspase probe KMB01. Individual caspases-3, 7, 8 and 9 (100 nM each) were incubated with the indicated inhibitors for 30 minutes followed by a 30 minute incubation with KMB01. Samples were analyzed by SDS-PAGE and residual active site labeling was visualized by biotin blotting using streptavidin-HRP. (b.) Direct labeling of caspase active sites using specific ABPs. Equal amounts of active caspaseses-3, 8, and 9 ([…]) were incubated together with increasing concentrations of each of the indicated biotinylated active site probes for 30 minutes. Active site labeling was visualized by SDS-PAGE analysis followed by biotin blotting using streptavidin HRP. (*) Indicates labeling of the full-length form of caspase-3 that is only observed using recombinant enzyme preparations.
We initially focused on recombinant caspase3, 7, 8, and 9. Each caspase was individually pre-incubated with our optimal series of selective inhibitors at a range of concentrations and residual activity was measured by addition of the general caspase probe KMB01. Overall, the competition data mirrored the kinetic data with caspase-3 and 8-specific compounds showing specific competition of the desired target.
This was shown by analysis of inhibitor and probe selectivity by indirect competition and direct labeling of recombinant caspases. Indirect competition of a panel of inhibitors with the general caspase probe KMB01 was carried out with individual caspases-3, 7, 8 and 9 (100 nM each), which were incubated with the specific inhibitors for 30 minutes followed by a 30-minute incubation with KMB01. Samples were analyzed by SDS-PAGE and residual active site labeling was visualized by biotin blotting using streptavidin-HRP. Also, the direct labeling of caspase active sites was carried out using specific ABPs. Equal amounts of active caspaseses-3, 8, and 9 ([…]) were incubated together with increasing concentrations of each of the indicated biotinylated active site probes for 30 minutes. Active site labeling was visualized by SDS-PAGE analysis followed by biotin blotting using streptavidin HRP.
For all competition and direct labeling experiments recombinant caspases were pre-incubated in caspase reaction buffer for 15 minutes at 37° C. For competition experiments, 100 nM of active site titrated caspase was incubated for 30 minutes at 37° C. with appropriate inhibitor and then residual active sites were labeled with 5 μM KMB01 for an additional 30 minutes. For direct labeling, 100 nM caspase-3, 8, and 9 were incubated together in the presence of appropriate ABPs at the indicated concentrations for 30 min at 37° C.

The test system of the next assay is cathepsin B and legumain. As to the kind of experiment: In vivo labeling of cathepsin B and legumain in kidney and spleen of normal mice. To be noted: intravenous, tissues collected 2 hrs after injection. The protocol:
The present selective caspase inhibitors may be used for in vivo imaging. Cy5-fluorescent labeled versions of AB46 and AB50 were injected into normal mice and labeling of cathepsins and legumain in kidney and spleen was monitored (FIG. 14).
Normal mice were intravenously injected with the probes and tissues were collected 2 hrs after injection. Tissues were homogenized and total protein samples were analyzed by SDS-PAGE followed by scanning of the gel using a fluorescent scanner.

The target of assay [2] is T4, FL-C7 (full-length caspase-7) (Homo sapiens, UniProt P55210).
T4 construct: the p37 band as the full-length caspase-7 with intact N-terminus (FL-C7); endogenous in cells
T4 sequence (P55210 1-303): T1 sequence (P55210 1-303)
As to the kind of experiment: Inhibitor specificity in hypotonic 293 extracts, full-length caspase-7. Format: biochemical. The following applies: inhibitor 20 μM for 5 min, then KMB01 30 min. The source says:
(§4) FIGS. 6 A-E illustrate that full-length active caspase-7 has unique inhibitor specificity and is processed to mature forms by downstream executioner caspases. (A) The caspase-3 specific inhibitor causes accumulation of a catalytically active full-length form of caspase-7. Cytosolic extracts from 293 cells were activated with cytochrome c/dATP for the indicated times followed by labeling with KMB01 (left panel) and western blotting with a caspase-7 specific antibody (right panel) as in FIG. 5A. […] (B) The exact same experiment as (A) except extracts from MCF-7 cells were used in place of 293 extracts. (**) indicates forms of caspase-7 that are likely a result of the alternative transcription start site at methionine-45 (C) Quantification of the relative activity of FL-C7 in uninhibited 293 extracts (from FIG. 5A), AB06 treated 293 extracts (from (A)) and uninhibited MCF-7 extracts (from (B)) (D) Inhibitor specificity of full-length and processed forms of caspase-7. Extracts (293) were activated for 5 min with cytochrome c/dATP and then incubated with NP-capped AOMK inhibitors containing the indicated primary amino acid sequences for 5 minutes before KMB01 was added and allowed to label residual caspase active sites for 30 minutes. Samples were analyzed by SDS-PAGE followed by biotin blotting using strepavidin-HRP (left panel) or western blotting for caspase-7 (right panel). Identities of labeled caspases are indicated. (E) Specificity of AB06 after prolonged incubation times. Extracts were treated with AB06 at the indicated concentrations simultaneously with cytochrome c/dATP. At the indicated times after activation, samples were labeled with KMB01 (10 μM) for 30 minutes. Labeled caspases were resolved by SDS-PAGE analysis followed by biotin blotting using strepavidin-HRP.
To further confirm our assignment of the labeled species we treated samples at various activation times with purified recombinant Bir3 domain of XIAP. […]
(§5) An additional surprising finding from the inhibitor studies was the overall lack of inhibition of the FL-C7 species by AB06 relative to mature p20 forms of caspase-7. […] Samples were analyzed for active site labeling and protein levels of both full-length and p20 forms of caspase-7 were monitored by western blot (FIG. 6D).
Hypotonic 293 extracts (73 μg of total protein) were activated as described above and allowed to incubate for the indicated times. […] Labeling was carried out for an additional 30 minutes and samples (13.5 μg total protein) were analyzed by SDS-PAGE and biotin blotting as described above.
(§6) Hypotonic 293 extracts (73 μg of total protein) were activated at 37° C. for 5 minutes as described above. […] Samples (13.5 μg total protein) were analyzed by SDS-PAGE and biotin blotting as described above

Assay [3] has as its target T5, mature p20 forms of caspase-7 (Homo sapiens, UniProt P55210).
T5 construct: p20 is mature large subunit of caspase-7 with N-terminal peptide removed; processing of the zymogen to the large and small subunits by activity of the initiator caspases; endogenous in cells
T5 sequence (P55210 24-198 limits assumed): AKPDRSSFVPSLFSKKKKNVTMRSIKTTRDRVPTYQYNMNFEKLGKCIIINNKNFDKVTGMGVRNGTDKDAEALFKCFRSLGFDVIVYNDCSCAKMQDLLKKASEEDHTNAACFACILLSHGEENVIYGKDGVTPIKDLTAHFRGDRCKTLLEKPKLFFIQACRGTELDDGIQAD
T5 sequence (P55210 207-303 limits assumed): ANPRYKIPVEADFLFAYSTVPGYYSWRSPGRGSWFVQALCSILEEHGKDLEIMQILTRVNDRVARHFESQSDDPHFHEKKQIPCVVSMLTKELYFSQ
As to the kind of experiment: Inhibitor specificity in hypotonic 293 extracts, mature p20 caspase-7. It counts as biochemical. The following applies: inhibitor 20 μM for 5 min, then KMB01 30 min.
Source text: as §4
as §5, with “mature p20 forms of caspase-7. This was surprising since the sequence of AB06 (NP-D3VD-AOMK) differs from the KMB01 probe sequence (Bio-EVD-AOMK) only at the P3 residue. […] We therefore wanted to use inhibitors to compare the ability of different P3 elements to bind to full-length and p20 mature forms of” for “mature p20 forms of”
as §6

Sequence of Caspase-8 (Q14790 217-479): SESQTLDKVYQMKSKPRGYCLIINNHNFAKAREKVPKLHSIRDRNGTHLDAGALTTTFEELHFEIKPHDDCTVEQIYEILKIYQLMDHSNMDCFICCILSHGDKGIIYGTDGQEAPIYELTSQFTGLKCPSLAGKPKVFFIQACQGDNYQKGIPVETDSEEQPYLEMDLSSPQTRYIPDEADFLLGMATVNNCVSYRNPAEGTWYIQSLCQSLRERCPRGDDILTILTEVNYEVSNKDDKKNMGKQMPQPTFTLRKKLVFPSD

With `CCC(C)C(NC(=O)Cc1ccc(O)c([N+](=O)[O-])c1)C(=O)N[C@@H](CC(C)C)C(=O)N[C@@H](C)C(=O)N[C@@H](CC(=O)O)C(=O)COC(=O)c1c(C)cccc1C` (stereo partly drawn) [AB40, Np-I-L- A-D-AOMK], the “Ki(app) Caspase-8” value at Caspase-8 (Table III, Ki(app) = Kass or Kobs/I, 10 nM active caspase-8) was 35,174 M^−1s^−1. For the same compound, the “Caspase-8 Ki (app)” value on Caspase-8 (Table IV, NI = no inhibition at concentrations tested) was 35,174 M-1s-1. The “Ki(app) Caspase-7” value at Caspase-7 (Table III, Ki(app) = Kass or Kobs/I, 5 nM active caspase-7) is on record as 11,256 M^−1s^−1. Moreover, at Caspase-7 (Table IV), the “Caspase-7 Ki (app)” value is on record as 11,256 M-1s-1. In addition, at Caspase-3 (Table III, Ki(app) = Kass or Kobs/I, 5 nM active caspase-3), the “Ki(app) Caspase-3” value is on record as 261,470 M^−1s^−1. In addition, the “Caspase-3 Ki(app)” value on Caspase-3 (Table IV) is 261,470 M-1s-1. For the same compound, on Caspase-9 (Table III, Ki(app) = Kass or Kobs/I, 50 nM active caspase-9), the “Ki(app) Caspase-9” value was 48,867 M^−1s^−1. At Caspase-9 (Table IV), the “Caspase-9 Ki (app)” value is 48,867 M-1s-1. Besides, the “competition for KMB01 labeling of recombinant caspases” value in assay [1] was “no specific inhibition”.
In the case of `CC[C@H](NC(=O)[C@@H](CCC(=O)O)NC(=O)Cc1ccc(O)c([N+](=O)[O-])c1)C(=O)N[C@@H](CC(=O)O)C(=O)COC(=O)c1c(C)cccc1C` [AB46, Np-E-8-D-AOMK], the “in vivo labeling in kidney and spleen” value with cathepsin B and legumain is “significant labeling of both legumain and cathepsin B”.
In the case of `Cc1cccc(C)c1C(=O)OCC(=O)[C@H](CC(=O)O)NC(=O)[C@@H](NC(=O)[C@H](CCC(=O)O)NC(=O)Cc1ccc(O)c([N+](=O)[O-])c1)C(C)C` [AB45, Np-E-V- D-AOMK], in assay [2], the “inhibition of FL-C7 labeling” value is reported as “almost totally inhibited”. Also, the “block of KMB01 labeling of mature p20 caspase-7” value in assay [3] is “efficiently blocked labeling”.
As for `Cc1cccc(C)c1C(=O)OCC(=O)[C@H](CC(=O)O)NC(=O)[C@@H](NC(=O)[C@H](Cc1ccncc1)NC(=O)Cc1ccccc1)C(C)C` [AB37, Cbz-3-V-D-AOMK], the “inhibition of FL-C7 labeling” value in assay [2] is on record as “relatively insensitive to inhibition”. For the same compound, the “block of KMB01 labeling of mature p20 caspase-7” value in assay [3] is recorded as “incomplete inhibition”.
